From patent publication US7074789B2, “Kinase inhibitors” (Amgen Inc., priority 1999, dated 2006)

What was measured:
Type in all cases: biochemical
Lck = target: T1, Lck (Homo sapiens, UniProt P06239); assay: Kinase inhibition assay (33P transfer), Lck; details: read-out: Lck-1
T1 construct: Kinases are expressed as either kinase domains or full length constructs; made in house
In short: (§1)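 Enzyme activity is taken as the amount of 33PO4 moved from ATP onto poly(Glu, Tyr) 4:1 or poly(Arg, Ser) 3:1 fixed to the plate surface. Unbound label is removed with 0.5% phosphoric acid before scintillation counting.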

Lyn = target: T2, Lyn (Homo sapiens, UniProt P07948); assay: Kinase inhibition assay (33P transfer), Lyn; details: Table 6, Lyn-1 kinase inhibition class
T2 construct: Kinases are expressed as either kinase domains or full length constructs; made in house
In short: (§2)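 Kinase domains or full-length enzymes, GST- or polyHis-tagged, were expressed in E. coli or baculovirus High Five cells and affinity-purified. Transfer of 33PO4 from ATP onto plate-bound poly(Glu,Tyr) 4:1 or poly(Arg,Ser) 3:1 was counted by liquid scintillation after a 0.5% phosphoric acid wash. IC50 = concentration halving incorporation.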

Src = target: T3, Src (Homo sapiens, UniProt P12931); assay: Kinase inhibition assay (33P transfer), Src; details: Table 6, Src-1 kinase inhibition class
T3 construct: Kinases are expressed as either kinase domains or full length constructs; made in house
In short: as §2

Fyn = target: T4, Fyn (Homo sapiens, UniProt P06241); assay: Kinase inhibition assay (33P transfer), Fyn; details: read-out: Fyn-1
T4 construct: Kinases are expressed as either kinase domains or full length constructs; made in house
In short: as §2

Zap-70 = target: T5, Zap-70 (Homo sapiens, UniProt P43403); assay: Kinase inhibition assay (33P transfer), Zap-70; details: read-out: Zap-1
T5 construct: Kinases are expressed as either kinase domains or full length constructs; made in house
T5 sequence (P43403 1-619): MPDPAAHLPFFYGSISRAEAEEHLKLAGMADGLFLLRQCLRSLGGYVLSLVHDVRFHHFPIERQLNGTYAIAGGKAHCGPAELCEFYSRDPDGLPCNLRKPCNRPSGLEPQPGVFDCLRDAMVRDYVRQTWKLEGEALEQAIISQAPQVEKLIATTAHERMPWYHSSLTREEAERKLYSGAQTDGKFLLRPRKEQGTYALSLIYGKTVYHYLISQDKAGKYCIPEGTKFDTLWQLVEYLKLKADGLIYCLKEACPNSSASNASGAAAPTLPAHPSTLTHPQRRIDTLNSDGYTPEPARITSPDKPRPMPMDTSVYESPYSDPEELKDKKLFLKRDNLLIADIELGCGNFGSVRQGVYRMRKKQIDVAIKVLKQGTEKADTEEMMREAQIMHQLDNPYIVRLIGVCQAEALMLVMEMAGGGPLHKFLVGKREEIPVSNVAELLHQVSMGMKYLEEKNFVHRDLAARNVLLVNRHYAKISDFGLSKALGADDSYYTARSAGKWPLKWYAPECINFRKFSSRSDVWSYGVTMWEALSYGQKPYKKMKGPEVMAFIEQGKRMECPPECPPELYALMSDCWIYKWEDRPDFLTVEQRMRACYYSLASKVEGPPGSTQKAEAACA
In short: as §1

Itk = target: T6, Itk (Homo sapiens, UniProt Q08881); assay: Kinase inhibition assay (33P transfer), Itk; details: read-out: Itk-1
T6 construct: Kinases are expressed as either kinase domains or full length constructs; made in house
T6 sequence (Q08881 1-620): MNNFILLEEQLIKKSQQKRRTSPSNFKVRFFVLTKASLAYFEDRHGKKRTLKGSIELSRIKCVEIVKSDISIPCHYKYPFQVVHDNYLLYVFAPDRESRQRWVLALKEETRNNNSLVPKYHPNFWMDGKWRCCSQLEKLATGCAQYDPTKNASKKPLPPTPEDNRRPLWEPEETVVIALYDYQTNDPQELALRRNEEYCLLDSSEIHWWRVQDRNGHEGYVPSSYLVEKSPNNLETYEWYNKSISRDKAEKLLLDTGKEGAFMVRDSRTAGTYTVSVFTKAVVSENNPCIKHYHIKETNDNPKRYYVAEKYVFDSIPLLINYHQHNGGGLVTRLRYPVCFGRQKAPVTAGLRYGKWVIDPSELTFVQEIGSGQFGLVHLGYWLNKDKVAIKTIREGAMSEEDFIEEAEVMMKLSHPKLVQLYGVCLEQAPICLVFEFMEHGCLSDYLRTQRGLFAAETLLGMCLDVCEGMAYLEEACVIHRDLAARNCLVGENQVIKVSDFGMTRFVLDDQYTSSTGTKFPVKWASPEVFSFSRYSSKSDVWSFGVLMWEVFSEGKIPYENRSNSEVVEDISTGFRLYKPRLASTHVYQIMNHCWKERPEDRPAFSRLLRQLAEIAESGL
In short: as §2

EGFR = target: T7, EGFR (Homo sapiens, UniProt P00533); assay: Kinase inhibition assay (33P transfer), EGFR; details: Table 2, kinase inhibition class; read-out: EGFR-1
T7 construct: Kinases are expressed as either kinase domains or full length constructs; made in house
In short: as §2

ErbB2 = target: T8, ErbB2 (Homo sapiens, UniProt P04626); assay: Kinase inhibition assay (33P transfer), ErbB2; details: read-out: ErbB2-2
T8 construct: Kinases are expressed as either kinase domains or full length constructs; made in house
In short: as §2

Kdr = target: T9, Kdr (Homo sapiens, UniProt P35968); assay: Kinase inhibition assay (33P transfer), Kdr; details: read-out: KDR-1
T9 construct: Kinases are expressed as either kinase domains or full length constructs; made in house
In short: as §1

Flt-1 = target: T10, Flt-1 (Homo sapiens, UniProt P17948); assay: Kinase inhibition assay (33P transfer), Flt-1
T10 construct: Kinases are expressed as either kinase domains or full length constructs; made in house
In short: as §2

Tek = target: T11, Tek (Homo sapiens, UniProt Q02763); assay: Kinase inhibition assay (33P transfer), Tek; details: read-out: Tek-1
T11 construct: Kinases are expressed as either kinase domains or full length constructs; made in house
In short: as §2

c-Met = target: T12, c-Met (Homo sapiens, UniProt P08581); assay: Kinase inhibition assay (33P transfer), c-Met; details: Table 2, kinase inhibition class; read-out: Met-1
T12 construct: Kinases are expressed as either kinase domains or full length constructs; made in house
In short: as §2

AKT = target: T13, AKT (Homo sapiens, UniProt Q9Y243); assay: Kinase inhibition assay (33P transfer), AKT; details: Table 2, kinase inhibition class; read-out: AKT3-1
T13 construct: Kinases are expressed as either kinase domains or full length constructs; made in house
In short: as §1

IGFR-1 = target: T14, IGFR-1 (Homo sapiens, UniProt P08069); assay: Kinase inhibition assay, IGFR-1 (Table 2); details: Table 2, kinase inhibition class
T14 construct: Kinases are expressed as either kinase domains or full length constructs; made in house

PDGFRB = target: T15, PDGFRB (Homo sapiens, UniProt P09619); assay: Kinase inhibition assay (33P transfer), PDGFRB; details: read-out: PDGFRB-1
T15 construct: Kinases are expressed as either kinase domains or full length constructs; made in house

Hck-1 = target: T16, Hck-1 (Homo sapiens, UniProt P08631); assay: Kinase inhibition assay (33P transfer), Hck; details: Table 6, Hck-1 kinase inhibition class
T16 construct: Kinases are expressed as either kinase domains or full length constructs; made in house

ErbB4 = target: T17, ErbB4 (Homo sapiens, UniProt Q15303); assay: Kinase inhibition assay (33P transfer), ErbB4; details: read-out: ErbB4-1
T17 construct: Kinases are expressed as either kinase domains or full length constructs; made in house

Ret-1 = target: T18, Ret-1 (Homo sapiens, UniProt P07949); assay: Kinase inhibition assay (33P transfer), Ret; details: Table 6, Ret-1 kinase inhibition class
T18 construct: Kinases are expressed as either kinase domains or full length constructs; made in house

FGFR1 = target: T19, FGFR1 (Homo sapiens, UniProt P11362); assay: Kinase inhibition assay (33P transfer), FGFR1; details: read-out: FGFR1-1
T19 construct: Kinases are expressed as either kinase domains or full length constructs; made in house

T8 sequence (P04626 23-1255, species assumed): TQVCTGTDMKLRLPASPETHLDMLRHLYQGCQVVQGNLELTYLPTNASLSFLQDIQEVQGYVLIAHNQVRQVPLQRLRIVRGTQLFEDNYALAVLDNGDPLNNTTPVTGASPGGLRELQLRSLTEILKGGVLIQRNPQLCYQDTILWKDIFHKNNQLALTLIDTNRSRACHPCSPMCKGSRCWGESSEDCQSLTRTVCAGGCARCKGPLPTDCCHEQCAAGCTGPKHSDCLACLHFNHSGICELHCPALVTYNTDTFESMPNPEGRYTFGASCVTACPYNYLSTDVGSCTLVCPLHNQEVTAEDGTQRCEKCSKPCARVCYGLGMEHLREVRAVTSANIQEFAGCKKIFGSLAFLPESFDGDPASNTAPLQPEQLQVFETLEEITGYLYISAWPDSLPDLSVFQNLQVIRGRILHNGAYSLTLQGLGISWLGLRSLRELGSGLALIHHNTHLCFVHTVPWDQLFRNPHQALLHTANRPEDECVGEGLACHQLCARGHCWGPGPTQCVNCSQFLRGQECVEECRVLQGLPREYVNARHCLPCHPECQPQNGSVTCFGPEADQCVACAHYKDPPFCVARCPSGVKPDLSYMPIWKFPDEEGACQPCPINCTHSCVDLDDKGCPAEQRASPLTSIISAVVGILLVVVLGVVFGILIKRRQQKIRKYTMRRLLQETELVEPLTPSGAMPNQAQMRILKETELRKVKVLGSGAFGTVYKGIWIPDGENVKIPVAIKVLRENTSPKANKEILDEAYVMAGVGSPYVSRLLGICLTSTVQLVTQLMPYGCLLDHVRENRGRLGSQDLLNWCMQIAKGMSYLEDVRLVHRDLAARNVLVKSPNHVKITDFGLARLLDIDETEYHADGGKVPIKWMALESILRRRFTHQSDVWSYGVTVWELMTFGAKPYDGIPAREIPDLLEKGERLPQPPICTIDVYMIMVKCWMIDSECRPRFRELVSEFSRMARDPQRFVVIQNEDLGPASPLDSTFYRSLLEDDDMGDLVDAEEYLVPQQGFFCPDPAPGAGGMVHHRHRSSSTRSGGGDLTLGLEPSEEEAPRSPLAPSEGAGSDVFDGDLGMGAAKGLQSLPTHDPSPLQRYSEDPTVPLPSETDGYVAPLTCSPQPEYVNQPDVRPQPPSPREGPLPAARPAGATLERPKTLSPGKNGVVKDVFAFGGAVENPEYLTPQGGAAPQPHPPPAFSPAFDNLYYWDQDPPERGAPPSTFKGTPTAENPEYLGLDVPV
T3 sequence (P12931 whole entry, species assumed, the tested form may be a part): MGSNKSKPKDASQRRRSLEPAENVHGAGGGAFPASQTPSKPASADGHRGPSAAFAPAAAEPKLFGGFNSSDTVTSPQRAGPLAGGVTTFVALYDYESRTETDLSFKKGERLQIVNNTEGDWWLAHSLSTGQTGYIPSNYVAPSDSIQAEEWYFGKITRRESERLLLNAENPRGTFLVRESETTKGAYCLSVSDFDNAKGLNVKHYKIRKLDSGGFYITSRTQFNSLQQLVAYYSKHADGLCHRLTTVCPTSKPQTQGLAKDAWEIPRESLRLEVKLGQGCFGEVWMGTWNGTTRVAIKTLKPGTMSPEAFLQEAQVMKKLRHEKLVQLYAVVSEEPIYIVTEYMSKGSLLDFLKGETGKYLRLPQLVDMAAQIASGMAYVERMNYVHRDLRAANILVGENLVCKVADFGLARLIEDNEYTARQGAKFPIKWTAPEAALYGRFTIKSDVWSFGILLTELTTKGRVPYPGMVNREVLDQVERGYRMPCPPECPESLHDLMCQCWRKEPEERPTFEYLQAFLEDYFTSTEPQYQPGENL
T7 sequence (P00533 25-1210, species assumed): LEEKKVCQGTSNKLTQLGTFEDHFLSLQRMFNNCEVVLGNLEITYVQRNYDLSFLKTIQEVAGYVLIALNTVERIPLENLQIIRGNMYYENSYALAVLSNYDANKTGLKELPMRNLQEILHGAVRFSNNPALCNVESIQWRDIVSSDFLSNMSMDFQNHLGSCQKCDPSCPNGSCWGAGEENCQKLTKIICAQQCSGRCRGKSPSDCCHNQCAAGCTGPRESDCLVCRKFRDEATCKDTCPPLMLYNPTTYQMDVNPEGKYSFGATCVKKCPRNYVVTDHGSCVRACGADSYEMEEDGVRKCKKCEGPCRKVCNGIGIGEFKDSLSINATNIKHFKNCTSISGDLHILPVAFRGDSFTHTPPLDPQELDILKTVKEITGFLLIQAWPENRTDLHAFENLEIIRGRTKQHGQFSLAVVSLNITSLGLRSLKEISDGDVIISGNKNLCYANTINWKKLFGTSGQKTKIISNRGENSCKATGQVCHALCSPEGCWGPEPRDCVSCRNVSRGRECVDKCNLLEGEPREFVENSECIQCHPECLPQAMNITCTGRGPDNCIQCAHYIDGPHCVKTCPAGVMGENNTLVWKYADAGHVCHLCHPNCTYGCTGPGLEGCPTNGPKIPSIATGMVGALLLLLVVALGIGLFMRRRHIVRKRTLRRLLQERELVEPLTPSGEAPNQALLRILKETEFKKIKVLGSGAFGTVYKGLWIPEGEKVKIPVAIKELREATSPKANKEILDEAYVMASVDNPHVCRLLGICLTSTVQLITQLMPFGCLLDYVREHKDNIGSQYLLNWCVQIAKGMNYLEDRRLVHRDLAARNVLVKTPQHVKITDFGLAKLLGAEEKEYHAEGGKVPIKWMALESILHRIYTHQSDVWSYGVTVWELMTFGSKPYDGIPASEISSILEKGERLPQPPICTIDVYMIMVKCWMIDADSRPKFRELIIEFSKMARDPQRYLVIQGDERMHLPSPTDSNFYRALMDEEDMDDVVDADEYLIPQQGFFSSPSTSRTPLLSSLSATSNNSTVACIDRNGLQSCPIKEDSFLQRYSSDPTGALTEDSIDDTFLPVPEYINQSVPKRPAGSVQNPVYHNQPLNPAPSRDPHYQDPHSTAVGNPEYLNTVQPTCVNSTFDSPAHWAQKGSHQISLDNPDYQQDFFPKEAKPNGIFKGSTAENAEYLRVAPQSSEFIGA
T14 sequence (P08069 31-1367): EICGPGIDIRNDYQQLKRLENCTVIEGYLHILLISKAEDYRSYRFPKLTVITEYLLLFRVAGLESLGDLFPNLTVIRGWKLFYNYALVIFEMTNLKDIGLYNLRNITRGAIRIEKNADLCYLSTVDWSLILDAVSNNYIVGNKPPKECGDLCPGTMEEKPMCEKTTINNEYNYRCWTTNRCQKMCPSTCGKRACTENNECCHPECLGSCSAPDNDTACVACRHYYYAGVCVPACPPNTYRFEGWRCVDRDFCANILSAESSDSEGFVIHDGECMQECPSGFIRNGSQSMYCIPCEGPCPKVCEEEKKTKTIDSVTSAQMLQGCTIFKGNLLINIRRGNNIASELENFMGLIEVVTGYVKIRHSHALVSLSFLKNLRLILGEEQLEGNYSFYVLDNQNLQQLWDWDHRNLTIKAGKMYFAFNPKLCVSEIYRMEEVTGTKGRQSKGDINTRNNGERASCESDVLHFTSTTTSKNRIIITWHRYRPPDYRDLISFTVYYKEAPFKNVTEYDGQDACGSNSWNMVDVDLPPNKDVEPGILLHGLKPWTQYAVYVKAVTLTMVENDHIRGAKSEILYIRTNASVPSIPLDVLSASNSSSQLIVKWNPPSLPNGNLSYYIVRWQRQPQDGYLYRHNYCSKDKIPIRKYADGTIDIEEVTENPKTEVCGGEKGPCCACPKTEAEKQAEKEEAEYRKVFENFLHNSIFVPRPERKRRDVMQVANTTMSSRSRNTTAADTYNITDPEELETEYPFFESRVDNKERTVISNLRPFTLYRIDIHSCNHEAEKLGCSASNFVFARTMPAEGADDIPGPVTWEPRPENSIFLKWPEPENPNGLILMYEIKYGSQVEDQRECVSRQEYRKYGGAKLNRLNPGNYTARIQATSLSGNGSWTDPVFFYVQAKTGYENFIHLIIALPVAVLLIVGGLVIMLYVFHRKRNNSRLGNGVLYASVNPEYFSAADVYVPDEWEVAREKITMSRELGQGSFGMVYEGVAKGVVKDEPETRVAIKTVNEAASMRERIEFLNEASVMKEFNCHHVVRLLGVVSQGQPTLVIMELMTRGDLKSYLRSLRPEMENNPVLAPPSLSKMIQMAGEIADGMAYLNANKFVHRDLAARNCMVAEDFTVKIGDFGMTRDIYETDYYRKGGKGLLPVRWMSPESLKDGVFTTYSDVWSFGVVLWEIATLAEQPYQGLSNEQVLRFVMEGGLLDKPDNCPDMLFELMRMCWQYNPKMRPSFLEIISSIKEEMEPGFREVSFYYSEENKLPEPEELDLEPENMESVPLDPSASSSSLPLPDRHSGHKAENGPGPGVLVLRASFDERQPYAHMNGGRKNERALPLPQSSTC
T4 sequence (P06241 whole entry, species assumed, the tested form may be a part): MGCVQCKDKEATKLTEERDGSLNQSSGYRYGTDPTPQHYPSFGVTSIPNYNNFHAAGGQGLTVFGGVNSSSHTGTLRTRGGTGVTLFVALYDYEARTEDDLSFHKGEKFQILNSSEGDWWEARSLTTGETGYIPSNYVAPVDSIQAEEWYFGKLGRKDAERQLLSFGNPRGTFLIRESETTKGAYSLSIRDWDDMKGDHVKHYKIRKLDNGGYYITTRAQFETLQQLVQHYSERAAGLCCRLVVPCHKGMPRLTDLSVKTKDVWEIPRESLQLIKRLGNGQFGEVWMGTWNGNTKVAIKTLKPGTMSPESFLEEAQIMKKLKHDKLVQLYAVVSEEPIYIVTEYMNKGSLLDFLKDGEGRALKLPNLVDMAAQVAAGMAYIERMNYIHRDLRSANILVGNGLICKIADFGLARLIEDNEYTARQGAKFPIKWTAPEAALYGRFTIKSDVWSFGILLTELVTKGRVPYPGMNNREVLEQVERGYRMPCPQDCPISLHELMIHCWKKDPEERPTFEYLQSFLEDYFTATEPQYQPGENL

SMILES | IC50 (Lck) [µM] | IC50 (Lyn) [µM] | IC50 (Src) [µM] | IC50 (Fyn) [µM] | IC50 (Zap-70) [µM] | IC50 (Itk) [µM] | IC50 (EGFR) [µM] | IC50 (ErbB2) [µM] | IC50 (Kdr) [µM] | IC50 (Flt-1) [µM] | IC50 (Tek) [µM] | IC50 (c-Met) [µM] | IC50 (AKT) [µM] | IC50 (IGFR-1) [µM] | IC50 (PDGFRB) [µM] | IC50 (Hck-1) [µM] | IC50 (ErbB4) [µM] | IC50 (Ret-1) [µM] | IC50 (FGFR1) [µM]
COc1cc(Nc2ncnc(-n3c(NCc4ccc(F)cc4Cl)nc4ccccc43)n2)cc(OC)c1OC [Compound 951] | 0.746 to 4.48 | > 8.4 | > 8.4 | > 8.4 | > 8.4 | > 8.4 | 6.53 to 8.4 | > 8.4 | < 0.746 | > 8.4 | 4.48 to 6.53 | > 8.4 | > 8.4 | > 8.4 | < 0.746 | > 8.4 | > 8.4 | < 0.746 | < 0.746
CC(C)Nc1ncccc1-c1ncnc(Nc2ccc(C(N)=O)cc2)n1 [Compound 1084] | < 1.14 | < 1.14 | > 12.9 | > 12.9 | > 12.9 | 6.87 to 10 | > 12.9 | > 12.9 | 1.14 to 6.87 | > 12.9 | > 12.9 | 6.87 to 10 | > 12.9 | > 12.9 | 1.14 to 6.87 | > 12.9 | > 12.9 | < 1.14 | > 12.9
COc1cc(Nc2ncnc(-n3c(NCc4ccc([N+](=O)[O-])cc4)nc4ccccc43)n2)cc(OC)c1OC [Compound 952] | 4.54 to 6.62 | < 0.757 | 6.62 to 8.51 | 4.54 to 6.62 | > 8.51 | 6.62 to 8.51 | > 8.51 | 4.54 to 6.62 | < 0.757 | 0.757 to 4.54 | 4.54 to 6.62 | > 8.51 | > 8.51 | 0.757 to 4.54 | 0.757 to 4.54 | 6.62 to 8.51 | > 8.51 | < 0.757 | 0.757 to 4.54
COc1cc(Nc2ncnc(-n3c(=O)[nH]c4ccccc43)n2)cc(OC)c1OCCN1CCOCC1 [Compound 1040] | 0.81 to 4.86 | > 9.12 | 0.81 to 4.86 | 0.81 to 4.86 | > 9.12 | 0.81 to 4.86 | 4.86 to 7.09 | 4.86 to 7.09 | < 0.81 | 0.81 to 4.86 | > 9.12 | > 9.12 | > 9.12 | 7.09 to 9.12 | < 0.81 | > 9.12 | 4.86 to 7.09 | 4.86 to 7.09 | 0.81 to 4.86
COc1cc(Nc2ncnc(N3c4ccccc4CCC3C)n2)cc(OC)c1OC (centres unmarked) [Compound 612] | < 0.982 | 0.982 to 5.89 | 0.982 to 5.89 | 0.982 to 5.89 | 8.59 to 11 | 0.982 to 5.89 | 0.982 to 5.89 | 0.982 to 5.89 | < 0.982 | < 0.982 | 0.982 to 5.89 | < 0.982 | > 11 | 5.89 to 8.59 | 0.982 to 5.89 | 8.59 to 11 | 0.982 to 5.89 | 0.982 to 5.89 | < 0.982
